Reference: publication PMC7933320, “Cytochalasins from Xylaria sp. CFL5, an Endophytic Fungus of Cephalotaxus fortunei” (Natural Products and Bioprospecting, 2020)

Key:
LAG3/FGL1 = biological target: T1, LAG3/FGL1 (Homo sapiens, UniProt P18627); test: LAG3/FGL1 binding assay (HTRF, Cisbio kit); conditions: for inhibition at 50 µM: read-out: inhibition rate against LAG3/FGL1
T1 sequence (P18627 23-450 limits assumed): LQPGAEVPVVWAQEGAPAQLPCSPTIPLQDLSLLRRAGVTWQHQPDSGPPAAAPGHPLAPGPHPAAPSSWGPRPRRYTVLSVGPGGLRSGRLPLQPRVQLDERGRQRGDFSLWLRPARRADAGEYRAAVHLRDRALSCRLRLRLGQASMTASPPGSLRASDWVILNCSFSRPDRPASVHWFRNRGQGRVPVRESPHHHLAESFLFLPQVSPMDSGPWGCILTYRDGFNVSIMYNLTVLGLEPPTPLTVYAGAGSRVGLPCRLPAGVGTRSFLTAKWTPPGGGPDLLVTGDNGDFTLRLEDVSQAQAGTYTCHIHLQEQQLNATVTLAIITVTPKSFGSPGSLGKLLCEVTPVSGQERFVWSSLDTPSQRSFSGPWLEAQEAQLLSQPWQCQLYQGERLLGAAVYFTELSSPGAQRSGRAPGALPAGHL
Protocol: (§1) Using the following fluorescence intensity (F) measurements at 665 nm, such as the signals of positive control (Fp), blank control (Fb), and experimental groups (Fe), the inhibition rate was calculated at each of the compound concentration levels. The inhibitory activity of compound against the interaction of LAG3 with MHC II was evaluated based on the formula as follow: Inhibition rate = (Fp − Fe)/(Fp − Fb) × 100%. IC50 values were calculated by linear regression of a dose-dependent inhibition rate curve.
The tested principles and methods were similar to those of LAG3/MHC II. Using LAG3/FGL1 binding assay kit from Cisbio, the inhibition activity of tested compounds on the binding between LAG3 and MHC II was evaluated. […] Moreover, the compositions of tested groups, positive control, negative control, blank control were analogical with those of LAG3/MHC II kit. The experimental operations and statistical analysis were also identical with above-mentioned LAG3/MHC II kit.

LAG3/MHC II = biological target: T2, LAG3/MHC II (Homo sapiens, UniProt P18627); test: LAG3/MHC II binding assay (HTRF, Cisbio kit); conditions: for inhibition at 50 µM: read-out: inhibition rate against LAG3/MHC II
T2 sequence (P18627 23-450 limits assumed): T1 sequence (P18627 23-450 limits assumed)
Protocol: Utilizing HTRF (Homogeneous Time-resolved Fluorescence) technology [34, 35], the inhibition activity of tested compounds interfering in the interaction between MHC II and LAG3 proteins was evaluated. The activity was measured using LAG3/MHC II binding assay kit commercially available from Cisbio. […] 2 μL tested solutions, 4 μL Tag1-LAG3 protein, and 4 μL Tag2-MHC II protein were added in sterile 96-well dishes. After incubation for 15 min in room temperature, 5 μL anti-Tag1-Tb^3+ and 5 μL anti-Tag2-XL665 (or 10 μL of pre-mixed anti-tag detection reagents) were added into each well. The concentration of DMSO in each well was kept below 0.5% and the final volume in each well was 20 μL in the moment. Then the 96-well dishes were kept incubating for 1 h to overnight at room temperature. Subsequently, remove the plate sealer and read specific emission signal at 665 nm on an HTRF compatible reader. […] The negative control consisted of 4 μL Tag2-MHC II protein, 5 μL anti-Tag1-Tb^3+ and 5 μL anti-Tag2-XL665, as well as 6 μL diluent. In blank control, 5 μL anti-Tag1-Tb^3+, 10 μL diluent, and 5 μL detection buffer were existed.
as §1

[1] = Cytotoxicity by the CCK8 assay; format: cell-based; conditions: human, AGS cells, read-out: inhibition rate, cytotoxicity against AGS cells
Protocol: With adriamycin as the positive control, compounds 1, 4–9 were assessed for cytotoxicity against AGS, U251, and MDA-MB-231 by the CCK8 assay (Tables 3 and 4).

Row | SMILES | IC50 (LAG3/FGL1) | inhibition at 50 µM (LAG3/FGL1) | IC50 (LAG3/MHC II) | inhibition at 50 µM (LAG3/MHC II) | inhibition at 5 µM [1]
1 | CC(=O)OC1C=CC(C)(O)C(=O)C(C)CC=CC2C(=O)C(C)C(C)C3C(Cc4ccccc4)NC(=O)C123 (stereo not shown) [Compound 8] | 7.45 µM | 92.5% | 2.58 µM | 78.9% | –
2 | CC(=O)OC1C=CC(C)(O)C(=O)C(C)CC=CC2C=C(CO)C(C)C3C(Cc4ccccc4)NC(=O)C213 (stereo not shown) [Compound 5, 12-hydroxyl zygosporin G] | – | 79.1% | 3.18 µM | 85.3% | –
3 | C=C1C(C)C2C(Cc3ccccc3)NC(=O)C23C(OC(C)=O)C=CC(C)C(=O)C(C)CC=CC3C1O (stereo not shown) [Compound 7, zygosporin E] | 4.39 µM | 92.7% | 2.37 µM | 82.7% | –
4 | CC(=O)OC1C=CC(C)(O)C(=O)C(C)CC=CC2C=C(C)C(C)C3C(Cc4ccccc4)NC(=O)C213 (stereo not shown) [Compound 4, zygosporin G] | – | 24.9% | – | 55.7% | –
5 | CC(=O)OC1C=CC(C)(O)C(=O)C(C)CC=CC2C(O)C(C)=C(C)C3C(Cc4ccccc4)NC(=O)C123 (stereo not shown) [Compound 9, cytochalasin C] | – | 58.4% | – | 77.4% | 64%
6 | C=C1[C@@H](C)[C@H]2[C@H](Cc3ccccc3)NC(=O)[C@]23[C@H](OC(C)=O)/C=C/[C@@](C)(O)C(=O)[C@@H](C)C/C=C/[C@H]3[C@@H]1O [Compound 6, cytochalasin D] | – | 2.66% | – | – | 94%
7 | CC(=O)OC1C=CC(C)C(=O)C(C)CC=CC2C=C(C)C(C)C3C(Cc4ccccc4)NC(=O)C213 (stereo not shown) [Compound 1, xylariasin A] | 11.8 µM | 83.9% | 4.74 µM | 82.4% | –
